Laboratory results published in PubChem BioAssay (NCI).
Values joined by “and” are separate entries in the source; they are usually repeats but may differ in a detail not shown here. Equal values may be shown once.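 Method: 48-hour compound exposure of cells in 96-well plates, five concentrations, linear interpolation of endpoints. GI50 = concentration required for 50% inhibition of growth. Definition used: TGI = concentration required for complete inhibition of growth.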

Tests used:
Assay in all cases: inhibition of tumour cell growth, NCI panel, 48 h
HL-60(TB) leukemia = system: HL-60(TB) leukemia
OVCAR-3 ovarian = system: OVCAR-3 ovarian
K-562 leukemia = system: K-562 leukemia
UO-31 renal = system: UO-31 renal
MDA-MB-231 breast = system: MDA-MB-231 breast
SNB-75 CNS = system: SNB-75 CNS
HOP-62 NSCLC = system: HOP-62 NSCLC
SF-295 CNS = system: SF-295 CNS

Row | Structure (SMILES) | TGI (HL-60(TB) leukemia) | TGI (OVCAR-3 ovarian) | TGI (K-562 leukemia) | TGI (UO-31 renal) | TGI (MDA-MB-231 breast) | TGI (SNB-75 CNS) | TGI (HOP-62 NSCLC) | TGI (SF-295 CNS) | GI50 (HL-60(TB) leukemia) | GI50 (OVCAR-3 ovarian) | GI50 (K-562 leukemia) | GI50 (UO-31 renal) | GI50 (MDA-MB-231 breast) | GI50 (SNB-75 CNS) | GI50 (HOP-62 NSCLC) | GI50 (SF-295 CNS)
1 | CC(=O)OCc1ccc(O)c(C=O)c1 | > 100 µM | > 100 µM | > 100 µM | > 100 µM | > 100 µM | > 100 µM | > 100 µM | > 100 µM | – | – | – | – | – | – | – | –
2 | COc1ccc2c3c(c4ccccc4cc13)C(=O)N(CCN(C)CCN)C2=O | 0.361 µM | 1.19 µM | 1.32 µM | 1.35 µM | 1.94 µM | 1.37 µM | 0.264 µM | 1.03 µM | 0.0272 µM | 0.257 µM | 0.204 µM | 0.065 µM | 0.518 µM | 0.166 µM | 0.0267 µM | 0.0437 µM
3 | O=C(NCCN1CCC(O)CC1)c1cc2c(o1)C(=O)c1ccccc1C2=O | 1.02 µM | 0.658 µM | – | 1.84 µM | 2.9 µM | 0.797 µM | 0.51 µM | 0.288 µM | 0.282 µM | 0.242 µM | 0.378 µM | 0.666 µM | 0.377 µM | 0.323 µM | 0.23 µM | 0.149 µM
4 | CC1(C)CCC[C@]2(C)c3cc(O)ccc3CC[C@@H]12 | 48.5 µM | 34.3 µM | 29.5 µM | 40.2 µM | 30.4 µM | 27.5 µM | – | 44.6 µM | 16 µM | 17 µM | 10.9 µM | 19.9 µM | 16.2 µM | 12.4 µM | – | 20.6 µM
5 | N#C/C(=C\Nc1ccccn1)C(=O)c1ccco1 | > 100 µM | > 100 µM | > 100 µM | > 100 µM | > 100 µM | > 100 µM | > 100 µM | > 100 µM | – | – | – | – | – | – | – | –
6 | Fc1cccc(CSc2ncnc3c2ncn3C2CCCS2)c1 (stereo not drawn) | 32.1 µM | 35.6 µM | 84.2 µM | 36.2 µM | > 100 µM | 65.6 µM | 40.3 µM | 41.1 µM | – | – | – | – | – | – | – | –
7 | Nc1nc2ccc3[nH]ncc3c2c2c1CCCC2 | 5.72 µM | 9.87 µM | 15 µM | 10.5 µM | 8.45 µM | 2.71 µM | 6.77 µM | 10.5 µM | 2.31 µM | 2.78 µM | 3.15 µM | 2.13 µM | 2.74 µM | 1.36 µM | 1.99 µM | 2.49 µM
8 | Oc1ccc2ccccc2c1C1NN=C(c2ccccc2)S1 (stereo not drawn) | 4.13 µM | 11.8 µM | > 100 µM | > 20.4 µM | 35.7 µM | 32.2 µM | 31.7 µM | 62.2 µM | 0.353 µM | 0.443 µM | 0.504 µM | 0.409 µM | 0.621 µM | 1.02 µM | 0.454 µM | 0.475 µM
9 | O=C(O)c1ccc([S-])cc1.[Au+].c1ccc(CN2[CH-]N(Cc3ccccc3)C(c3ccccc3)=C2c2ccccc2)cc1 | 1.29 µM | 1.28 µM | 1.67 µM | 1.27 µM | 1.18 µM | 1.51 µM | 1.73 µM | 1.09 µM | 0.321 µM | 0.373 µM | 0.33 µM | 0.311 µM | 0.304 µM | 0.298 µM | 0.416 µM | 0.242 µM
10 | C[C@]1(C(=O)O)N[C@H](C(=O)O)CS1 | – | > 1000 µM | > 1000 µM | > 1000 µM | > 1000 µM | > 1000 µM | > 1000 µM | > 1000 µM | – | 504 µM | 2.34 µM | > 1000 µM | > 1000 µM | > 1000 µM | > 1000 µM | 933 µM
11 | COc1ccc2c(c1)CCc1[nH]nc(-c3cc(OC)c(OC)c(OC)c3)c1-2 | – | 14.7 µM | > 100 µM | 17.3 µM | 44.8 µM | 26.1 µM | 10.8 µM | 3.22 µM | – | < 0.01 µM | < 0.01 µM | < 0.01 µM | < 0.01 µM | < 0.01 µM | < 0.01 µM | < 0.01 µM
12 | COc1cc(-c2csc(NC(=O)Nc3cc(C(F)(F)F)cc(C(F)(F)F)c3)n2)cc(OC)c1OC | 6.89 µM | 10.6 µM | 12 µM | 12.1 µM | 3.92 µM | 10.6 µM | 6.36 µM | 5.46 µM | 2.43 µM | 2.39 µM | 1.92 µM | 2.85 µM | 1.59 µM | 2.27 µM | 2.11 µM | 1.83 µM
13 | O=C(Nc1ccc2[nH]c(C(=O)N3CC(CCl)c4c3cc([N+](=O)[O-])c3ccccc43)cc2c1)c1cc2ccccc2o1 (stereo not drawn) | 380 µM | > 1100 µM | – | > 1100 µM | > 1100 µM | – | > 1100 µM | > 1100 µM | 33.2 µM | > 1100 µM | – | > 1100 µM | > 1100 µM | – | > 1100 µM | –
14 | c1ccc(Nn2c(CCCCCCCCc3nnc(COc4ccccc4)n3Nc3ccccc3)nnc2COc2ccccc2)cc1 | > 300 µM | > 300 µM | > 300 µM | > 300 µM | > 300 µM | > 300 µM | > 300 µM | – | 2.55 µM and 9.66 µM | 16.5 µM and 41.2 µM | 3.71 µM and 2.17 µM | 5.27 µM and 8.49 µM | 12.4 µM | 48.8 µM and 49.2 µM | – | 1.24 µM and 7.51 µM
15 | CN1CCC(C(=O)Nc2n[nH]c3nc(-c4ccc(O)cc4)c(Br)cc23)CC1 | 4 µM and 1.25 µM | > 11.6 µM and 1.44 µM | > 25 µM | > 22.4 µM | 11.3 µM and 16 µM | 8.38 µM and 7.52 µM | > 22.6 µM and 15.8 µM | 20.1 µM and 22.3 µM | 0.988 µM and 0.333 µM | 0.815 µM and 0.504 µM | 1.04 µM and 0.404 µM | 6.85 µM and 7.86 µM | 1.4 µM and 3.97 µM | 0.207 µM and 0.537 µM | 2.39 µM and 2.43 µM | 3.94 µM and 3.41 µM
16 | Cn1c(/C=C(\C#N)c2cccc(C(F)(F)F)c2)nc2c(N3CCOCC3)nc(Cl)nc21 | 2.54 µM | 1.87 µM | 4.03 µM | 1.84 µM | 2.3 µM | 1.15 µM | 3.2 µM | 3.93 µM | 0.486 µM | 0.665 µM | 0.344 µM | 0.422 µM | 1.05 µM | 0.159 µM | 1.45 µM | 1.83 µM
